Experimental data published in US20190202836A1, “SELECTIVE DUAL INHIBITORS OF PI3 DELTA AND GAMMA PROTEIN KINASES” (Rhizen Pharmaceuticals SA, priority 2014, published 2019).
Read-outs that look alike come from different tables or passages of the source.

Tests used:
[1] = reported at 55th ASH Annual Meeting, 2013; cited from earlier work
[2] = target: PI3Kγ (Homo sapiens, UniProt P48736); test: Assay 1: Fluorescent (HTRF) determination of PI3 kinase enzyme activity, PI3Kγ; type: biochemical
Source text: (§1) Phosphoinositide 3 kinases (PI3K) belong to a class of lipid kinases that play a critical role in the regulation of several key cellular processes. The PI3K are capable of phosphorylating the 3-hydroxy position of phosphoinositols thereby generating second messengers involved in downstream signaling events. The homogenous time resolved fluorescence (HTRF) assay allows detection of 3,4,5-triphosphate (PIPS) formed as a result of phosphorylation of phosphotidylinositol 4,5-biphosphate (PIP2) by PI3K isoforms such as α, β, γ or δ.
(§2) PI3K isoform activity for α, β, γ or δ was determined using a PI3K human HTRF™ Assay Kit (Millipore, Billerica, Mass.) with modifications. All incubations were carried out at room temperature. 0.5 μl of 40× inhibitor (in 100% DMSO) or 100% DMSO were added to each well of a 384-well white plate (Greiner Bio-One, Monroe, N.C.) containing 14.5 μl 1× reaction buffer/PIP2 (10 mM MgCl2, 5 mM DTT, 1.38 μM PIP2) mix with or without enzyme, followed by 5 μl/well of 400 μM ATP and incubated for an additional 30 minutes. The reaction was terminated by adding 5 μl/well stop solution (Millipore, Billerica, Mass.). 5 μl of detection mix (Millipore, Billerica, Mass.) was then added to each well and incubated for 6-18 hours in the dark. HRTF ratio was measured on a microplate reader (BMG Labtech., Germany) at an excitation wavelength of 337 nm and emission wavelengths of 665 and 615 nm with an integration time of 400 msec counting delay of 50 msec.

[3] = Metabolic stability in mouse liver microsomes; type: in vitro ADME; details: 1 μM test item, 60 minutes, 37° C., NADPH
Procedure: (§3) Metabolic stability studies were conducted on Compounds A, A1, and A2 as well as Example 128 of WO 2012/151525 using mouse, rat, dog, monkey, and human liver microsomes. The protocol for the studies with mouse, rat, and human liver microsomes (all from BD Gentest, USA) is provided below. 0.4 mg protein was preincubated with 2 mM NADPH (cofactor) in phosphate buffer (pH-7.4) for 15 minutes at 37° C. and then added with 1 μM test item and incubated further for 60 minutes in triplicate. The reaction mixture was terminated with methanol containing an internal standard and centrifuged further to analyze the test item remaining in the supernatant by LC-MS/MS. The percent parent compound remaining was calculated in comparison with similar samples terminated at 0 minutes.

[4] = Metabolic stability in dog liver microsomes; type: in vitro ADME
[5] = Metabolic stability in rat liver microsomes; type: in vitro ADME; details: 1 μM test item, 60 minutes, 37° C., NADPH
Procedure: as §3

[6] = Metabolic stability in human liver microsomes; type: in vitro ADME; details: 1 μM test item, 60 minutes, 37° C., NADPH
Procedure: as §3

[7] = target: PI3Kδ (Homo sapiens, UniProt O00329); test: Assay 1: Fluorescent (HTRF) determination of PI3 kinase enzyme activity, PI3Kδ; type: biochemical
Source text: as §1, §2

[8] = Metabolic stability in monkey liver microsomes; type: in vitro ADME
Procedure: as §3

[9] = Oral pharmacokinetics in rats; type: in vivo; details: Rat, 10 mg/kg
Procedure: The oral bioavailability of Compound A1 (free base) was evaluated in rats and mice. The protocol for the pharmacokinetics studies in rat is provided below.
All animals were fasted overnight (12 hours) before dosing and continued till 4.0 hours after administration of test item. Test item formulations were prepared in 1% Tween 80 and 99% media (0.5% Methyl cellulose, 4000cPs, pH 2.2). The blood samples (150 μL from each animal) were collected from the orbital sinus, and placed into a micro centrifuge tube containing disodium EDTA as an anticoagulant. Blood samples were centrifuged immediately with a speed of 1000 g for 10 min at 4° C. and separated plasma samples were frozen at below −80° C. and stored until analysis. The concentrations of test item in all formulations were analyzed by HPLC. The plasma concentrations of test item in all samples were analyzed by LC-MS/MS. Pharmacokinetic parameters (Cmax, AUC0-t, Tmax, and t^1/2) were estimated by using WinNonlin software. Results are provided in Table 3 for Compound A, A1, and Example 128 of WO 2012/151525 in rats and Compound A1 in mice.

Sequence of PI3Kγ (P48736 whole entry, canonical isoform): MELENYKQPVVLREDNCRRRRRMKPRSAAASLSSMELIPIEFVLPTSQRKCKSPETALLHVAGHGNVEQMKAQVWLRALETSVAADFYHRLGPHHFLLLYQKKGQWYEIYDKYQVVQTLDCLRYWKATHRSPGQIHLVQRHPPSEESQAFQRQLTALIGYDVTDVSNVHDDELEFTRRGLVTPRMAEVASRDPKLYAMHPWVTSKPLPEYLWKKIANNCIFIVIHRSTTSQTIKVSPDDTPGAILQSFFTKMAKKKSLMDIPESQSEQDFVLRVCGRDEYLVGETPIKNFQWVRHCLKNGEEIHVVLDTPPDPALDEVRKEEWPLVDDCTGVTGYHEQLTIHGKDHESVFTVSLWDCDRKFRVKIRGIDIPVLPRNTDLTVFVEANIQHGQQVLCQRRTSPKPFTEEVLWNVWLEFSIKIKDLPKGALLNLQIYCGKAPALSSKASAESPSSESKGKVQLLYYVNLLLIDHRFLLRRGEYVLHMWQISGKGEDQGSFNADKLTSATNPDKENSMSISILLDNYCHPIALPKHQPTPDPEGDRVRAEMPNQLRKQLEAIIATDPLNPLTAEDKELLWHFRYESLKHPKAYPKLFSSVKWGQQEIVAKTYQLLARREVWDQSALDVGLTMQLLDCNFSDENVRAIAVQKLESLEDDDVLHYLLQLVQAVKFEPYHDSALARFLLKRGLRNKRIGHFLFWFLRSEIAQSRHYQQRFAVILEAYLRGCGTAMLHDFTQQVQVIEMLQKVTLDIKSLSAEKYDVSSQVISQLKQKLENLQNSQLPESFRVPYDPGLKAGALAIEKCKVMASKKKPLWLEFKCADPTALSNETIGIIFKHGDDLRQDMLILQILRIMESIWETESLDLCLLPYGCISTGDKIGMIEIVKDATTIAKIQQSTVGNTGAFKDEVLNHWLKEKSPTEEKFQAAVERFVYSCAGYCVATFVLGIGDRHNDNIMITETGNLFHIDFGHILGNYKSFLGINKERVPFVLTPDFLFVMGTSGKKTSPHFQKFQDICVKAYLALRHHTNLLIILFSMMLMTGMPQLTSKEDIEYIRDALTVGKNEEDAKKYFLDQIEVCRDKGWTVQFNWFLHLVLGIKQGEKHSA
Sequence of PI3Kδ (O00329 whole entry): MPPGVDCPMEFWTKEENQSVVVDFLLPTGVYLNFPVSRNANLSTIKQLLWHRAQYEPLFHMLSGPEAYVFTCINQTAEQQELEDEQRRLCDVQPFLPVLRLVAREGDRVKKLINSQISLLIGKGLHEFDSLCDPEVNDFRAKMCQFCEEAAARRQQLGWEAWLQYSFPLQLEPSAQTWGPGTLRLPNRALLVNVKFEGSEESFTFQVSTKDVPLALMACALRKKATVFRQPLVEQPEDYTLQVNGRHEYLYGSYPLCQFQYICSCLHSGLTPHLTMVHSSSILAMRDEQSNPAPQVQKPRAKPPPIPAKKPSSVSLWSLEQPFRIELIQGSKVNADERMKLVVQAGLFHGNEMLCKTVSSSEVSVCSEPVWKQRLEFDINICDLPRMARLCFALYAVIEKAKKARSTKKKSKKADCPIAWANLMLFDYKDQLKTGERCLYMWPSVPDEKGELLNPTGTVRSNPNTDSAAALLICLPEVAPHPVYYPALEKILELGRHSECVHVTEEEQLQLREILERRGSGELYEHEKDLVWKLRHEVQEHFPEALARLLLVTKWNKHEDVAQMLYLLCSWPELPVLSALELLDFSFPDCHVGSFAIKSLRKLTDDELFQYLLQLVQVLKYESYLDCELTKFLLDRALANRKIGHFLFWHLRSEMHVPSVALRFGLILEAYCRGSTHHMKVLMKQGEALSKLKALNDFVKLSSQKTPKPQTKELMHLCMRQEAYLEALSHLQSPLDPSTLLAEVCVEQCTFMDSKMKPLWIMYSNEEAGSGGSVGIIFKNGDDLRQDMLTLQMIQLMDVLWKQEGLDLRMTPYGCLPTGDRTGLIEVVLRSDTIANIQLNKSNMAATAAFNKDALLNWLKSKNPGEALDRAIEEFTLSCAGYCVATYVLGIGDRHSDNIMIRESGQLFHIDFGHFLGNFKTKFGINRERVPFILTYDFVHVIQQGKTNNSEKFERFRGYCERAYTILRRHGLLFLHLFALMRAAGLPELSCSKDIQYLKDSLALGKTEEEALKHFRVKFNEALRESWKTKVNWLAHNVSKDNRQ
Sequence of PI3Kδ (P27986 whole entry partner): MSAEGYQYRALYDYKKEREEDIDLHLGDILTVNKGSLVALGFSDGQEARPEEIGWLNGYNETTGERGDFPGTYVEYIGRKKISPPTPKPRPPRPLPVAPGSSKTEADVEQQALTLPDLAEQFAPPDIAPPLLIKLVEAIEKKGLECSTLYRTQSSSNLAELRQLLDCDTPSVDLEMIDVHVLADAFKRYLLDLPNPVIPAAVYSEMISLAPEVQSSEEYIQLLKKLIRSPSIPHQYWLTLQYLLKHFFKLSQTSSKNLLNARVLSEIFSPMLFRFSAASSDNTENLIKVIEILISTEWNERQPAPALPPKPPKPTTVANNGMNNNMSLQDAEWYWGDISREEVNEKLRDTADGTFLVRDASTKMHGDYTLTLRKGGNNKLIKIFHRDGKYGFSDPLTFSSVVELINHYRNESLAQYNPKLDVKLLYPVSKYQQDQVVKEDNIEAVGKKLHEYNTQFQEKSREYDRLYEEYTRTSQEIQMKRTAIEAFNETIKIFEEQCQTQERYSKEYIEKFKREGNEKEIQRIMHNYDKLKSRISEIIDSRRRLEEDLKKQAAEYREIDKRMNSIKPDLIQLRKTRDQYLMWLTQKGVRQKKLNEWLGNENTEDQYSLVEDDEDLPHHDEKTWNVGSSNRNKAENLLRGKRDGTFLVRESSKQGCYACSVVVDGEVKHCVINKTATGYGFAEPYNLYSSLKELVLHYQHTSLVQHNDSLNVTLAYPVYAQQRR

Compound | maximum tolerated dose (MTD) [1] | IC50 ([2]; read-out: IC50 (nM) PI3Kγ) | Metabolic stability in liver microsomes (percent parent compound remaining), Mouse [3] | Metabolic stability in liver microsomes (percent parent compound remaining), Dog [4] | Metabolic stability in liver microsomes (percent parent compound remaining), Rat [5] | Metabolic stability in liver microsomes (percent parent compound remaining), Human [6] | IC50 [7] | Metabolic stability in liver microsomes (percent parent compound remaining), Monkey [8] | fold increase in AUC0-t as compared to Example 128 of WO 2012/151525 [9] | fold increase in Cmax as compared to Example 128 of WO 2012/151525 [9] | fold increase in t1/2 as compared to Example 128 of WO 2012/151525 [9] | AUC(0-t) ([9]; plasma) | Cmax ([9]; plasma) | Tmax ([9]; plasma) | half-life ([9]; plasma) | IC50 ([2]; read-out: IC50 Pi3Kγ (cell prints μM))
C[C@H](Nc1ncnc2[nH]cnc12)c1cc2cccc(Cl)c2c(=O)n1-c1ccccc1 [IPI-45] | 75 mg BID | – | – | – | – | – | – | – | – | – | – | – | – | – | – | –
COc1ccc(-c2nn(C(C)c3oc4cccc(F)c4c(=O)c3-c3cccc(F)c3)c3ncnc(N)c23)cc1NS(C)(=O)=O (racemic) [Compound A, (RS)—N-(5-(4-amino-1-(1-(5-fluoro-3-(3-fluorophenyl)-4-oxo-4H-chromen-2-yl)ethyl)-1H-pyrazolo[3,4-d]pyrimidin-3-yl)-2-methoxyphenyl)methanesulfonamide] | – | 82.9 nM | 96% | 64.3% | 91% | 69.7% | 103 nM | 42.3% | ~4 fold | ~1.5 fold | ~2.8 fold | 7.95 µM·h | 1020 nM | 2.67 h | 4.52 h | –
COc1ccc(-c2nn([C@H](C)c3oc4cccc(F)c4c(=O)c3-c3cccc(F)c3)c3ncnc(N)c23)cc1NS(C)(=O)=O [Compound A2, (R)—N-(5-(4-amino-1-(1-(5-fluoro-3-(3-fluorophenyl)-4-oxo-4H-chromen-2-yl)ethyl)-1H-pyrazolo[3,4-d]pyrimidin-3-yl)-2-methoxyphenyl)methanesulfonamide] | – | > 10000 nM | 68.9% | 52.3% | 79.5% | 60.2% | 92.9 nM | 1.9% | – | – | – | – | – | – | – | > 10000 nM
